≈ marks a conversion by molar mass, not a printed value.
Tests used:
[1] = system: E. coli MG1655 strain; test: microbe, parasite or virus in culture; details: Escherichia coli, MG1655, 16 h, read-out: phenol concentration at which growth was totally inhibited (MIC)
[2] = system: E. coli YHP05; test: Screening of transformed E. coli living in cinnamaldehyde MIC (artificial ncRNA expression); type: cell-based; details: transformed E. coli YHP05, LB medium comprising 350 ug/ml cinnamaldehyde, 1 mM IPTG, 16 hrs
Experimental: In order to develop an artificial ncRNA to make E. coli survived at 300 ug/ml of cinnamaldehyde concentration, E. coli YHP05 was transformed by the plasmid library which can express genome-originated artificial ncRNA constructed in the Example 3-5, and after transformed ˜500,000 colonies were cultured for 16 hrs, they were diluted to 1:100 and cultured for 16 hrs again in a LB medium comprising 350 ug/ml cinnamaldehyde, 1 mM IPTG, and the result was shown in FIG. 6 and table 6.

[3] = system: E. coli YHP05 strain; test: MIC measurement to cinnamaldehyde of E. coli; type: cell-based; details: LB liquid medium, 37° C., 16 hrs

## Oc1ccccc1 [phenol]
[1]
  MIC: 20 mM (≈ 1880 µg/mL)

## clone 9: artificial ncRNA improving resistance to cinnamaldehyde, genome insert of SEQ ID NO: 20 (DNA GGCGCTGCATCCGCGTTATAGCCGCGCCCAGTATGACCGGGTAATGGA; expressed or natural sequence)
[2]
  OD600: 0.2403

## O=CC=Cc1ccccc1 [cinnamaldehyde]
[3]; 100 ug/ml cinnamaldehyde
  OD600: 3.08
[3]; 150 ug/ml cinnamaldehyde
  OD600: 2.74
[3]; 200 ug/ml cinnamaldehyde
  OD600: 2.25
[3]; 250 ug/ml cinnamaldehyde
  OD600: 0.341
[3]; 300 ug/ml cinnamaldehyde
  OD600: 0.091
[3]; 400 ug/ml cinnamaldehyde
  OD600: 0.083
[3]; 500 ug/ml cinnamaldehyde
  OD600: 0.062
[3]; Escherichia coli, YHP05STRAIN, read-out: cinnamaldehyde concentration at which cells were not grown (MIC)
  MIC: 300 µg/mL (≈ 2270 µM)

## clone 8: artificial ncRNA improving resistance to cinnamaldehyde, genome insert of SEQ ID NO: 19 (DNA AATCCCTCAATGATGCCTGGAATCGCTCTTTTA; expressed or natural sequence)
[2]
  OD600: 0.32

B1: clone 7: artificial ncRNA improving resistance to cinnamaldehyde, genome insert of SEQ ID NO: 18 (nucleic acid)
DNA: AACGCAGGGCGTTCGAAAGCAGGTTGCTTAGCGCCCGACGCAGCATCAGCGGATCGCCCGCGACCTGACACTTGTCGCCAACAAACCGCAACTCCACGCCGCGATCTTCCGCTAACGCCTCGAAAAAATCGAACACTTTGCCGACTTCATCCGCCAG
modifications: cinnamic aldehyde_reg_06
[2]
  OD600: 0.411

B2: clone 6: artificial ncRNA improving resistance to cinnamaldehyde, genome insert of SEQ ID NO: 17 (nucleic acid)
DNA: TATTCATTGCTTCTACCCGTGCCTCGCTTTCTGTATTACGAAATTGTCCCAACACATGTGCCAGCCGATAAAAACCCAC
modifications: expressed or natural sequence
[2]
  OD600: 0.2757

— patent US10227586B2, “Genome-originated artificial ncRNA expression library and method of preparing the same” (KOREA ADVANCED INSTITUTE OF SCIENCE AND TECHNOLOGY, priority 2016, dated 2019)
